Assay: Partition of cannabinoids between degummed cannabis oil miscella and water/ethanol/base extraction solvent in a fiber conduit contactor
Type: physicochemical
Set-up: scale not given here
Text: Degummed miscella from Example 1A were used to investigate the extraction of acid cannabinoids into a water/ethanol solvent using a fiber conduit contactor. Bases tested included sodium bicarbonate (NaHCO3), sodium carbonate (Na2CO3), potassium bicarbonate (KHCO3), and potassium carbonate (K2CO3). The hardness difference between a sodium and potassium radii (smaller radii are harder, larger radii are softer) creates a variation in the property of the resulting soaps. Sodium salts give a so-called “harder” soap that is more likely to be rejected from the crude miscella. Switching from bicarbonate to carbonate has two effects: (1) higher ion count in solution, thereby increasing ionic strength/polarity; and (2) increasing the pH by approximately 1 pH unit for the same wt % solution. This increased polarity can be used to enforce selectivity of the desired compounds.
As shown in the results below, there are multiple options for extracting specific combinations of cannabinoids. The bicarbonate bases gave a preference to acid cannabinoids, whereas the stronger carbonate bases were able to increase the total mass transfer. These parameters can be used to control the outflow product streams. The partition coefficients for various combinations are summarized in Table 3 and can be used to determine the optimal extraction solvent for a target compound or goal.
In Table 3 above, the Examples are ordered by decreasing polarity from top to bottom. A lower number specifies a preference for extraction and a high number specifies a preference to remain in the neutral oil. Blank squares are where coefficients could not be calculated.

[1] = Base K2CO3, H2O/EtOH/Base (wt %) 68.3/29.1/2.5
[2] = Base K2CO3, H2O/EtOH/Base (wt %) 73.0/24.5/2.5
[3] = Base K2CO3, H2O/EtOH/Base (wt %) 77.9/19.5/2.6
[4] = Base K2CO3, H2O/EtOH/Base (wt %) 82.8/14.7/2.5
[5] = Base K2CO3, H2O/EtOH/Base (wt %) 87.5/10/2.5
[6] = Base KHCO3, H2O/EtOH/Base (wt %) 68.1/29.4/2.6
[7] = Base KHCO3, H2O/EtOH/Base (wt %) 73.1/24.3/2.6
[8] = Base KHCO3, H2O/EtOH/Base (wt %) 78.0/19.5/2.5
[9] = Base KHCO3, H2O/EtOH/Base (wt %) 82.7/14.8/2.5
[10] = Base Na2CO3, H2O/EtOH/Base (wt %) 68.4/29.1/2.5
[11] = Base Na2CO3, H2O/EtOH/Base (wt %) 73.2/24.2/2.6
[12] = Base Na2CO3, H2O/EtOH/Base (wt %) 77.6/19.9/2.5
[13] = Base Na2CO3, H2O/EtOH/Base (wt %) 82.9/14.5/2.6
[14] = Base Na2CO3, H2O/EtOH/Base (wt %) 87.8/9.7/2.6
[15] = Base NaHCO3, H2O/EtOH/Base (wt %) 67.8/29.7/2.4, lower = preference for extraction, higher = remains in neutral oil
[16] = Base NaHCO3, H2O/EtOH/Base (wt %) 68.4/29.5/2.0
[17] = Base NaHCO3, H2O/EtOH/Base (wt %) 69.0/29.6/1.5
[18] = Base NaHCO3, H2O/EtOH/Base (wt %) 69.9/29.9/0.25
[19] = Base NaHCO3, H2O/EtOH/Base (wt %) 72.9/24.6/2.5
[20] = Base NaHCO3, H2O/EtOH/Base (wt %) 77.9/19.6/2.5
[21] = Base NaHCO3, H2O/EtOH/Base (wt %) 81.2/16.3/2.5
[22] = Base NaHCO3, H2O/EtOH/Base (wt %) 879./9.7/2.4

SMILES	Partition coefficient [1]	Partition coefficient [3]	Partition coefficient [4]	Partition coefficient [5]	Partition coefficient [6]	Partition coefficient [7]	Partition coefficient [8]	Partition coefficient [9]	Partition coefficient [10]	Partition coefficient [11]	Partition coefficient [12]	Partition coefficient [13]	Partition coefficient [14]	Partition coefficient [15]	Partition coefficient [19]	Partition coefficient [20]	Partition coefficient [21]	Partition coefficient [22]	other results
C=C(C)[C@@H]1CCC(C)=C[C@H]1c1c(O)cc(CCCCC)c(C(=O)O)c1O [CBDA, cannabidiolic acid]	0.04	−0.16	−0.08	0	−1.02	−0.59	0.04	0.21	−2.37	−2.22	−2.22	−2.11	−1.75	0.43	0.68	1.09	1.05	0.96	Partition coefficient [2]: 0.45; Partition coefficient (Base KHCO3, H2O/EtOH/Base (wt %) 86.3/11.3/2.5): 0.19; Partition coefficient [16]: −0.19; Partition coefficient [17]: 0.1; Partition coefficient (Base NaHCO3, H2O/EtOH/Base (wt %) 69.2/29.8/1.0): 0.22; Partition coefficient [18]: 0.38
CCCCCc1cc(O)c2c(c1)OC(C)(CCC=C(C)C)C=C2 (stereo not shown) [CBC, cannabichromene]	0.6	0.23	0.23	0.16					−0.2	−0.16	−0.21	−0.14	0.22	0.54	0.83	1.42	1.33	1.21	
CCCCCc1cc(O)c(C/C=C(\C)CCC=C(C)C)c(O)c1 [CBG, cannabigerol]		0.01	0.05	−0.07					1.58	1.6	1.53	1.59	1.91	0.46	0.76				Partition coefficient [18]: 2.62
CCCCCc1cc2c(c(O)c1C(=O)O)C=CC(C)(CCC=C(C)C)O2 (stereo not shown) [CBCA, cannabichromenic acid]	0.22	−0.29	−0.25	−0.2	2.09	2.59			0.93	1.09	1.08	1.15	1.48	0.57	1.14		1.24	1.17	
CCCCCc1cc(O)c(C/C=C(\C)CCC=C(C)C)c(O)c1C(=O)O [CBGA, cannabigerolic acid]	0.15	−0.19	−0.15	−0.1	0.33	0.72	1.4	1.61	−0.57	−0.47	−0.5	−0.44	−0.14	0.46	0.76	1.2	1.19	1.1	
CCCCCc1cc(O)c2c(c1)OC(C)(C)[C@@H]1CCC(C)=C[C@@H]21 [THC, tetrahydrocannabinol, reference compound]	0.59	0.1	0.09	0.13					0.22	0.2	0.1	0.13	0.47	0.77	1.03	1.43	1.28	1.17	
C=C(C)[C@@H]1CCC(C)=C[C@H]1c1c(O)cc(CCCCC)cc1O [CBD, cannabidiol, reference compound]	0.55	0.19	0.19	0.1	0.6	1.06	1.59	1.43	−0.87	−0.86	−0.94	−0.9	−0.55	0.48	0.78	1.29	1.25	1.14	Partition coefficient [2]: 0.87; Partition coefficient [16]: 1.4; Partition coefficient [17]: 1.86
CCCCCc1cc2c(c(O)c1C(=O)O)[C@@H]1C=C(C)CC[C@H]1C(C)(C)O2 [THCA, tetrahydrocannabinolic acid]	0.28	−0.09	−0.05	0.15	1.26	1.76			−0.18	−0.02	−0.02	0.06	0.41	0.91	1	1.33	1.16	1.12	

Source: patent publication US11766628B2, “Purification and extraction of cannabinoids” (CHEMTOR, LP, priority 2020, dated 2023)
